Results on 26 compounds are retold here after patent publication US20250051355A1, “COMPOUNDS, COMPOSITIONS, AND METHODS” (ACONCAGUA BIO, INC., priority 2023, published 2025).

Each structure is given as a SMILES string.

In this assay the target is human calcitonin receptor (CTR) and RAMP3 (AMY3) (Homo sapiens, UniProt O60896+P30988). The experiment in a line: Amylin Receptor cAMP Assay I. Type of assay: cell-based. The conditions noted are these: COS-7/AMY3 cells, cAMP Hi-range Kit, read-out: Amylin Receptor cAMP Stimulation Activity: EC50. The source says: Amylin Receptor cAMP Assay I
Chain of human calcitonin receptor (CTR) and RAMP3 (AMY3) (O60896 24-148): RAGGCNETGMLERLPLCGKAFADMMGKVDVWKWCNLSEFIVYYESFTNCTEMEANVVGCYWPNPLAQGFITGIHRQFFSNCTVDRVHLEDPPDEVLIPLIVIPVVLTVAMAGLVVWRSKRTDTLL
Chain of human calcitonin receptor (CTR) and RAMP3 (AMY3) (P30988 25-474): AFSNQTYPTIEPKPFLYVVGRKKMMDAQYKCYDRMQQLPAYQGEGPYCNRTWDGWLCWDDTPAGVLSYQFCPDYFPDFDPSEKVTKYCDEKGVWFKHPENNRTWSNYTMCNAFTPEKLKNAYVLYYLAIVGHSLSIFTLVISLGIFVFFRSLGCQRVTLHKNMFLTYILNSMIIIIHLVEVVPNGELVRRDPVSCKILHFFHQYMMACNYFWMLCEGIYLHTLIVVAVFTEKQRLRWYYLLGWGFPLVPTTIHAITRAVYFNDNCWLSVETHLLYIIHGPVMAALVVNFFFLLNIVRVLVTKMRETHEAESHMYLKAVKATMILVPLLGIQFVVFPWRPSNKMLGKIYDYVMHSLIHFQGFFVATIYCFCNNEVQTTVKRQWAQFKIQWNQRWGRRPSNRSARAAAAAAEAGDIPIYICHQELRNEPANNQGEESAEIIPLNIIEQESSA
AMYRs are heterodimers of the class B calcitonin (CT) G-protein-coupled receptor (CTR) and receptor activity-modifying proteins (RAMPs). All three RAMPs can interact with the CTR and form AMY1, AMY2, AMY3 with RAMP1, RAMP2 and RAMP3, respectively. Like other class B1 GPCRs, the CT receptor family is canonically coupled to Gs-mediated cAMP production, and measurement of cAMP accumulation has been the primary assay used to determine peptide selectivity and potency.
To optimize functional activity directed toward Gas coupling, COS-7 cells were stably transfected with human calcitonin receptor (CTR) and RAMP3, simultaneously. 100×concentration of compound working solutions were prepared (Agilent Technologies Bravo) with 4-fold serial dilution in 384-well Echo LDV plate (Labcyte, Cat #LP-0200). 100 nL/well 100× concentration of compound working solutions were moved to 384-well white low volume plate (Greiner, Cat #784075) using Labcyte ECHO550. 1×10^5 cells/mL COS-7/CTR or COS-7/AMY3 (HD Biosciences) cell suspensions prepared with assay buffer [DPBS containing 0.5 mM IBMX (Sigma, Cat #15879) and 0.1% BSA (GENVIEW, Cat #FAO16-100 g)], 10 μL cell suspensions were added to each well of previous generated assay plate which already contains 100 nL compound at 100× concentration using ThermoFisher Multidrop Combi (1000 cells/well). Seal the plate and incubate at 37° C. with 5% CO2 for 30 min.
After incubation, the cAMP assay signal was generated using cAMP Hi-range Kit (Cisbio). 5 μL cAMP-d2 working solution was added to each well, followed by 5 μL Anti-cAMP antibody-cryptate working solution which was added to each well using ThermoFisher Multidrop Combi. The samples were then incubated at room temperature for 1 hour protected from light. the fluorescence was read at 665 and 615 nm with Reader PerkinElmer EnVision.
On to `Cc1nnc(-c2c(CCc3ccc(F)cc3)nc3c(c2-c2ccc(C(=O)NCc4cncc(F)c4)s2)C(=O)N2CCC[C@@H]32)o1` [Compound 12, (S)-5-(2-(4-fluorophenethyl)-3-(5-methyl-1,3,4-oxadiazol-2-yl)-5-oxo-7,8,9,9a-tetrahydro-5H-pyrido[2,3-a]pyrrolizin-4-yl)-N-((5-fluoropyridin-3-yl)methyl)thiophene-2-carboxamide], for which the EC50 (as a rule, the midpoint of the concentration-response curve) worked out at 113 nM.

As for `COc1cccc2c1CC[C@H]2NC(=O)c1ccc(-c2c3c(nc(CCc4ccc(F)cc4)c2-c2nnc(C)o2)[C@@H]2CCCN2C3=O)s1` [Compound 13, N—[(R)-4-methoxy-1-indanyl]-5-((2S)-11-[2-(p-fluorophenyl)ethyl]-10-(5-methyl-1,3,4-oxadiazol-2-yl)-7-oxo-6,12-diazatricyclo[6.4.0.0^2,6]dodeca-1(12),8,10-trien-9-yl}-2-thenamide], the EC50 was determined as 29.7 nM.

With `Cc1cnc(-c2c(CCc3ccc(F)cc3)nc3c(c2-c2ccc(C(=O)NCc4ccc(F)c(F)c4)s2)C(=O)N2CCC[C@@H]32)o1` [Compound 14, N-(3,4-difluorophenyl)methyl-5-{(2S)-11-[2-(p-fluorophenyl)ethyl]-10-(5-methyl-1,3-oxazol-2-yl)-7-oxo-6,12-diazatricyclo[6.4.0.0^2,6]dodeca-1(8),9,11-trien-9-yl)-2-thenamide], the EC50 amounted to 12.6 nM. Consider `Cc1nnc(-c2c(CCc3ccc(F)cc3)nc3c(c2-c2ccc(C(=O)N[C@@H]4CCc5ccccc54)s2)C(=O)NC[C@H]3C(C)C)o1` [Compound 16, N—((R)-2,3-dihydro-1H-inden-1-yl)-5-((R)-2-(4-fluorophenethyl)-8-isopropyl-3-(5-methyl-1,3,4-oxadiazol-2-yl)-5-oxo-5,6,7,8-tetrahydro-1,6-naphthyridin-4-yl)thiophene-2-carboxamide], for which the EC50 was found to be 2370 nM. For the compound `Cc1nnc(-c2c(CCc3ccc(F)cc3)nc3c(c2-c2ccc(C(=O)NCc4ccc(F)c(F)c4)s2)C(=O)N2CCCC[C@@H]32)o1` [Compound 20], the EC50 came out at 79 nM. Turning to `CC(C)c1nnc(-c2c(CCc3ccc(F)cc3)nc3c(c2-c2ccc(C(=O)NCc4ccc(F)c(F)c4)s2)C(=O)N2CCC[C@@H]32)o1` [Compound 21], the EC50 was 37 nM. On to `Cc1ccc(CCc2nc3c(c(-c4ccc(C(=O)NCc5ccc(F)c(F)c5)s4)c2-c2nnc(C)o2)C(=O)N2CCC[C@@H]32)cn1` [Compound 22], for which the EC50 turned out to be 1130 nM.

For `Cc1cnc(-c2c(CCc3ccc(F)cc3)nc3c(c2-c2ccc(C(=O)NCc4ccc(F)c(F)c4)s2)S(=O)(=O)N2CCC[C@@H]32)o1` [Compound 24], the EC50 was determined as 80 nM. Turning to `Cc1nnc(-c2c(COC3CCCCC3)nc3c(c2-c2ccc(C(=O)NCc4ccc(F)c(F)c4)s2)C(=O)N2CCC[C@@H]32)o1` [Compound 25], the EC50 is 512 nM. Under `Cc1nnc(-c2c(COC3CCOCC3)nc3c(c2-c2ccc(C(=O)NCc4ccc(F)c(F)c4)s2)C(=O)N2CCC[C@@H]32)o1` [Compound 26] stands 1600 nM; under `Cc1nnc(-c2c(CCC3CCC(F)(F)CC3)nc3c(c2-c2ccc(C(=O)NCc4ccc(F)c(F)c4)s2)C(=O)N2CCC[C@@H]32)o1` [Compound 27], 174 nM. `Cc1nnc(-c2c(CCc3ccc(F)cc3)nc3c(c2-c2ccc(C(=O)N[C@@H]4CCc5ncccc54)s2)C(=O)N2CCC[C@@H]32)o1` [Compound 28]: the EC50 turned out to be 315 nM. Under `Cc1ncoc1-c1c(CCc2ccc(F)cc2)nc2c(c1-c1ccc(C(=O)NCc3ccc(F)c(F)c3)s1)C(=O)N1CCC[C@@H]21` [Compound 31, (S)—N-(3,4-difluorobenzyl)-5-(2-(4-fluorophenethyl)-3-(4-methyloxazol-5-yl)-5-oxo-7,8,9,9a-tetrahydro-5H-pyrido[2,3-a]pyrrolizin-4-yl)thiophene-2-carboxamide] stands 41.2 nM; under `Cc1nnc(-c2c(COc3ccc(F)cc3)nc3c(c2-c2ccc(C(=O)N[C@@H]4CCc5ncccc54)s2)C(=O)N2CCC[C@@H]32)o1` [Compound 32, N—[(R)-4-aza-1-indanyl]-5-{(2S)-11-[(p-fluorophenoxy)methyl]-10-(5-methyl-1,3,4-oxadiazol-2-yl)-7-oxo-6,12-diazatricyclo[6.4.0.0^2,6]dodeca-1(8),9,11-trien-9-yl}-2-thenamide], 728 nM; under `Cc1ncoc1-c1c(CCc2ccc(F)cc2)nc2c(c1-c1ccc(C(=O)NCc3ccc(F)c(F)c3)s1)S(=O)(=O)N1CCC[C@@H]21` [Compound 33, (S)—N-(3,4-difluorobenzyl)-5-(2-(4-fluorophenethyl)-3-(4-methyloxazol-5-yl)-5,5-dioxido-7,8,9,9a-tetrahydropyrrolo[1′,2′:2,3]isothiazolo[4,5-b]pyridin-4-yl)thiophene-2-carboxamide], 52.5 nM. Next, `Cc1nc(C)c(-c2c(CCc3ccc(F)cc3)nc3c(c2-c2ccc(C(=O)NCc4ccc(F)c(F)c4)s2)C(=O)N2CCC[C@@H]32)o1` [Compound 34, (S)—N-(3,4-difluorobenzyl)-5-(3-(2,4-dimethyloxazol-5-yl)-2-(4-fluorophenethyl)-5-oxo-7,8,9,9a-tetrahydro-5H-pyrido[2,3-a]pyrrolizin-4-yl)thiophene-2-carboxamide]: 20.5 nM.

Turning to `Cc1nnc(-c2c(CCOC(C)C)nc3c(c2-c2ccc(C(=O)NCc4ccc(F)c(F)c4)s2)C(=O)N2CCC[C@@H]32)o1` [Compound 35, (S)—N-(3,4-difluorobenzyl)-5-(2-(2-isopropoxyethyl)-3-(5-methyl-1,3,4-oxadiazol-2-yl)-5-oxo-7,8,9,9a-tetrahydro-5H-pyrido[2,3-a]pyrrolizin-4-yl)thiophene-2-carboxamide], the concentration giving a half-maximal response (EC50) was over 100 nM. Take `Cc1nnc(-c2c(CCc3ccc(F)cc3)nc3c(c2-c2cc4ccnc(NCc5ccc(F)c(F)c5)c4s2)C(=O)N2CCC[C@@H]32)o1` [Compound 40, (S)-4-(7-((3,4-difluorobenzyl)amino)thieno[2,3-c]pyridin-2-yl)-2-(4-fluorophenethyl)-3-(5-methyl-1,3,4-oxadiazol-2-yl)-7,8,9,9a-tetrahydro-5H-pyrido[2,3-a]pyrrolizin-5-one]: the concentration giving a half-maximal response (EC50) stood at 20.2 nM.

`Cc1cnc(-c2c(CCc3ccc(F)cc3)nc3c(c2-c2cc4ccnc(NCc5ccc(F)c(F)c5)c4s2)C(=O)N2CCC[C@@H]32)o1` [Compound 41]: the EC50 came to 22.8 nM. Under `Cc1nnc(-c2c(CCc3cnn(C)c3)nc3c(c2-c2ccc(C(=O)NCc4ccc(F)c(F)c4)s2)C(=O)N2CCC[C@@H]32)o1` [Compound 43, (S)—N-(3,4-difluorobenzyl)-5-(3-(5-methyl-1,3,4-oxadiazol-2-yl)-2-(2-(1-methyl-1H-pyrazol-4-yl)ethyl)-5-oxo-7,8,9,9a-tetrahydro-5H-pyrido[2,3-a]pyrrolizin-4-yl)thiophene-2-carboxamide] stands 1880 nM; under `Cc1nnc(-c2c(CC3(c4ccc(F)cc4)CC3)nc3c(c2-c2ccc(C(=O)NCc4ccc(F)c(F)c4)s2)C(=O)N2CCC[C@@H]32)o1` [Compound 49, (S)—N-(3,4-difluorobenzyl)-5-(2-((1-(4-fluorophenyl)cyclopropyl)methyl)-3-(5-methyl-1,3,4-oxadiazol-2-yl)-5-oxo-7,8,9,9a-tetrahydro-5H-pyrido[2,3-a]pyrrolizin-4-yl)thiophene-2-carboxamide], 382 nM. Regarding `Cc1nnc(-c2c(CCc3ccc(F)cc3)nc3c(c2-c2ccc(C(=O)NCc4ccc(F)c(F)c4)s2)C(=O)N2CC[C@H](O)[C@@H]32)o1` [Compound 50, N-(3,4-difluorobenzyl)-5-((9S,9aR)-2-(4-fluorophenethyl)-9-hydroxy-3-(5-methyl-1,3,4-oxadiazol-2-yl)-5-oxo-7,8,9,9a-tetrahydro-5H-pyrido[2,3-a]pyrrolizin-4-yl)thiophene-2-carboxamide], the EC50 worked out at 129 nM. With `Cc1nnc(-c2c(CC(O)c3ccc(F)cc3)nc3c(c2-c2ccc(C(=O)N[C@@H]4CCc5ccccc54)s2)C(=O)N2CCC[C@@H]32)o1` (stereo partly drawn) [Compound 51, N-[(1R)-2,3-dihydro-1H-indenyl]-5-[(9aS)-2-[2-(4-fluorophenyl)-2-hydroxyethyl]-3-(5-methyl-1,3,4-oxadiazol-2-yl)-5-oxo-7,8,9,9a-tetrahydro-5H-pyrido[2,3-a]pyrrolizin-4-yl]thiophene-2-carboxamide], the EC50 was 551 nM. On to `Cc1nnc(-c2c(CC(F)c3ccc(F)cc3)nc3c(c2-c2ccc(C(=O)N[C@@H]4CCc5ccccc54)s2)C(=O)N2CCC[C@@H]32)o1` (some centres unmarked) [Compound 52], for which the EC50 was found to be 126 nM. Take `Cc1nnc(-c2c(CCc3ccc(F)cc3)nc3c(c2-c2cc4ccnc(NCc5ccc(F)c(F)c5)c4s2)C(=O)N2CCCC32O)o1` (centres unmarked) [Compound 53]: the EC50 amounted to 13.1 nM. Next, `Cc1cnc(-c2c(CCC3CCOCC3)nc3c(c2-c2ccc(C(=O)NCc4ccc(F)c(F)c4)s2)C(=O)N2CCC[C@@H]32)o1` [Compound 57]: 113 nM.
